What is called IC50 is the concentration at which inhibition is half-maximal. Higher therefore signals a need for much substance.

Test [1] deals with T1, glucosylceramide synthase (GCS) (Homo sapiens, UniProt Q16739).
T1 construct: The obtained supernatant was used; host or cells: A549 cells (lysate supernatant after sonication)
T1 sequence (Q16739 1-394): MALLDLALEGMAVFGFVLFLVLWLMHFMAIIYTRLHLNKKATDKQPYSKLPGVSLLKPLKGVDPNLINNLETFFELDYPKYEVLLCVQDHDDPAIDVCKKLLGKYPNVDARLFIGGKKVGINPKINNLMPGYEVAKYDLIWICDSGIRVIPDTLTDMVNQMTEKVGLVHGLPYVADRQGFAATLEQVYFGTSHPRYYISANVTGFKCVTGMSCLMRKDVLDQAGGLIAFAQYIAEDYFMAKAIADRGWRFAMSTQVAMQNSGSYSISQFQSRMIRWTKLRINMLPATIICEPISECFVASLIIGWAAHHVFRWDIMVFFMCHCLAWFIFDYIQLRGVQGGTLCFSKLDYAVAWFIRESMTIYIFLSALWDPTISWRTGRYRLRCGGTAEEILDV
Put plainly: GCS enzyme inhibition assay (A549 cell lysate, NBD C6-ceramide, HPLC fluorescence). Format: biochemical. Particulars: inhibitory activity against GCS, 37° C., 90 minutes. Summed up: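 A549 cell lysate (50 mM HEPES pH 7.3) served as GCS source; reactions ran 90 min at 37° C, were stopped with chloroform/methanol and lipids extracted. Activity taken as GlcCer/(Cer+GlcCer) peak area, normalised between DMSO and ibiglustat controls.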

For test [2], the system named is GM1 production in Jurkat cells. The test can be described thus: cells. The class given is cell-based. Particulars: Homo sapiens, Jurkat, 72 h.

Turning to `COc1ccc(Cl)c(-c2ccc3c(c2)OCCC3(C)NC(=O)O[C@@H]2CN3CCC2CC3)c1` (stereo partly drawn) [Example 301, (S)-quinuclidin-3-yl (7-(2-chloro-5-methoxyphenyl)-4-methylchroman-4-yl)carbamate], the IC50 in test [1] came out at 0.8 nM; in test [2], 17.5 nM.
As to `CCOc1ccc(-c2ccc3c(c2)OCCC3(C)NC(=O)O[C@@H]2CN3CCC2CC3)cc1` (stereo partly drawn) [Example 302, (S)-quinuclidin-3-yl (7-(4-ethoxyphenyl)-4-methylchroman-4-yl)carbamate], the IC50 was found to be 0.8 nM in test [1] and 2.6 nM in test [2].
For `CN(C)c1cccc(-c2ccc3c(c2)OCCC3(C)NC(=O)O[C@@H]2CN3CCC2CC3)c1` (stereo partly drawn) [Example 303, (S)-quinuclidin-3-yl (7-(3-(dimethylamino)phenyl)-4-methylchroman-4-yl)carbamate], in that order: 0.5 nM and 3.2 nM.
The like results for `CC1(NC(=O)O[C@@H]2CN3CCC2CC3)CCOc2cc(-c3coc4ccccc34)ccc21` (stereo partly drawn) [Example 304, (S)-quinuclidin-3-yl (7-(benzofuran-3-yl)-4-methylchroman-4-yl)carbamate] were, in that order, 0.38 nM and 2.1 nM.
On to `CC1(NC(=O)O[C@@H]2CN3CCC2CC3)CCOc2cc(-c3cccc(C(F)(F)F)c3)ccc21` (stereo partly drawn) [Example 305, (S)-quinuclidin-3-yl (4-methyl-7-(3-(trifluoromethyl)phenyl)chroman-4-yl)carbamate], for which the values for the half-inhibitory concentration (IC50) in test [1] and in test [2] were 0.7 nM and 5.4 nM, respectively.
For `CC1(NC(=O)O[C@@H]2CN3CCC2CC3)CCOc2cc(-c3cccc(OC(F)(F)F)c3)ccc21` (stereo partly drawn) [Example 306, (S)-quinuclidin-3-yl (4-methyl-7-(3-(trifluoromethoxy)phenyl)chroman-4-yl)carbamate], in that order: 0.5 nM and 3 nM.
The like results for `CC1(NC(=O)O[C@@H]2CN3CCC2CC3)CCOc2cc(-c3ccc4c(c3)OC(F)(F)O4)ccc21` (stereo partly drawn) [Example 307, (S)-quinuclidin-3-yl (7-(2,2-difluorobenzo[d][1,3]dioxol-5-yl)-4-methylchroman-4-yl)carbamate] were, in that order, 1.07 nM and 3.1 nM.
For `CCOc1c(C)cc(-c2ccc3c(c2)OCCC3(C)NC(=O)O[C@@H]2CN3CCC2CC3)cc1C` (stereo partly drawn) [Example 308, (S)-quinuclidin-3-yl (7-(4-ethoxy-3,5-dimethylphenyl)-4-methylchroman-4-yl)carbamate], in that order: 1.06 nM and 4.1 nM.
Consider `CC1(NC(=O)O[C@@H]2CN3CCC2CC3)CCOc2cc(-c3ccccc3C#N)ccc21` (stereo partly drawn) [Example 309, (S)-quinuclidin-3-yl (7-(2-cyanophenyl)-4-methylchroman-4-yl)carbamate], for which the IC50 in test [1] is 5.77 nM; in test [2], 37.2 nM.
As to `CC(C)(C)c1cccc(-c2ccc3c(c2)OCCC3(C)NC(=O)O[C@@H]2CN3CCC2CC3)c1` (stereo partly drawn) [Example 310, (S)-quinuclidin-3-yl (7-(3-(tert-butyl)phenyl)-4-methylchroman-4-yl)carbamate], the IC50 stood at 0.23 nM in test [1] and 0.2 nM in test [2].
In the case of `Cc1cscc1-c1ccc2c(c1)OCCC2(C)NC(=O)O[C@@H]1CN2CCC1CC2` (stereo partly drawn) [Example 311, (S)-quinuclidin-3-yl (4-methyl-7-(4-methylthiophen-3-yl)chroman-4-yl)carbamate], the IC50 in test [1] was 0.17 nM; in test [2] it was 0.7 nM.
The like results for `CC(C)(C)c1cccc(-c2ccc3c(c2)COCC3NC(=O)O[C@@H]2CN3CCC2CC3)c1` (stereo partly drawn) [Example 312, (S)-quinuclidin-3-yl (7-(3-(tert-butyl)phenyl)isochroman-4-yl)carbamate] were, in that order, 5.62 nM and 28.8 nM.
For `CC(C)c1cccc(-c2ccc3c(c2)COCC3NC(=O)O[C@@H]2CN3CCC2CC3)c1` (stereo partly drawn) [Example 313, (S)-quinuclidin-3-yl (7-(3-isopropylphenyl)isochroman-4-yl)carbamate], in that order: 3.89 nM and 34.5 nM.
For `CN1CCC(NC(=O)O[C@@H]2CN3CCC2CC3)c2ccc(-c3cccc(C(C)(C)C)c3)cc21` (stereo partly drawn) [Example 314, (S)-quinuclidin-3-yl (7-(3-(tert-butyl)phenyl)-1-methyl-1,2,3,4-tetrahydroquinolin-4-yl)carbamate], in that order: 6.47 nM and 56.3 nM.
On to `CN1CCC(NC(=O)O[C@@H]2CN3CCC2CC3)c2ccc(-c3coc4ccccc34)cc21` (stereo partly drawn) [Example 315, (S)-quinuclidin-3-yl (7-(benzofuran-3-yl)-1-methyl-1,2,3,4-tetrahydroquinolin-4-yl)carbamate], for which the values for the IC50 in test [1] and in test [2] were 14.7 nM and 58.1 nM, respectively.
For `O=C(NC1CCSc2ccc(-c3ccc(Cl)cc3)cc21)O[C@@H]1CN2CCC1CC2` (stereo partly drawn) [Example 316, (S)-quinuclidin-3-yl (6-(4-chlorophenyl)thiochroman-4-yl)carbamate], in that order: 36.5 nM and 251 nM.
The like results for `O=C(NC1CCSc2cc(-c3cccc(F)c3)ccc21)O[C@@H]1CN2CCC1CC2` (stereo partly drawn) [Example 317, (S)-quinuclidin-3-yl (7-(3-fluorophenyl)thiochroman-4-yl)carbamate] were, in that order, 2.94 nM and 13.8 nM.
For the compound `O=C(NC1CCSc2cc(-c3cccc(Cl)c3)ccc21)O[C@@H]1CN2CCC1CC2` (stereo partly drawn) [Example 318, (S)-quinuclidin-3-yl (7-(3-chlorophenyl)thiochroman-4-yl)carbamate], the 50% inhibitory concentration (IC50) is 1.29 nM in test [1] and 27.2 nM in test [2].
The like results for `O=C(NC1CCSc2cc(-c3cccc(C(F)(F)F)c3)ccc21)O[C@@H]1CN2CCC1CC2` (stereo partly drawn) [Example 319, (S)-quinuclidin-3-yl (7-(3-(trifluoromethyl)phenyl)thiochroman-4-yl)carbamate] were, in that order, 1.07 nM and 6.7 nM.
For `O=C(NC1CCSc2cc(-c3cccc(OC(F)(F)F)c3)ccc21)O[C@@H]1CN2CCC1CC2` (stereo partly drawn) [Example 320, (S)-quinuclidin-3-yl (7-(3-(trifluoromethoxy)phenyl)thiochroman-4-yl)carbamate], in that order: 1.5 nM and 13.8 nM.
The like results for `COCOc1cccc(-c2ccc3c(c2)SCCC3NC(=O)O[C@@H]2CN3CCC2CC3)c1` (stereo partly drawn) [Example 321, (S)-quinuclidin-3-yl (7-(3-(methoxymethoxy)phenyl)thiochroman-4-yl)carbamate] were, in that order, 1 nM and 3.64 nM.
Turning to `CC(C)(C)c1cccc(-c2ccc3c(c2)SCCC3NC(=O)O[C@@H]2CN3CCC2CC3)c1` (stereo partly drawn) [Example 322, (S)-quinuclidin-3-yl (7-(3-(tert-butyl)phenyl)thiochroman-4-yl)carbamate], the results for the IC50 in test [1] and in test [2] were 1.78 nM and 5.88 nM, respectively.
Consider `O=C(NC1CCSc2cc(-c3cc(Cl)ccc3Cl)ccc21)O[C@@H]1CN2CCC1CC2` (stereo partly drawn) [Example 323, (S)-quinuclidin-3-yl (7-(2,5-dichlorophenyl)thiochroman-4-yl)carbamate], for which the figures for the IC50 in test [1] and in test [2] were 0.63 nM and 26.3 nM, respectively.
The like results for `CCOc1cccc(-c2ccc3c(c2)SCCC3NC(=O)O[C@@H]2CN3CCC2CC3)c1` (stereo partly drawn) [Example 324, (S)-quinuclidin-3-yl (7-(3-ethoxyphenyl)thiochroman-4-yl)carbamate] were, in that order, 1.25 nM and 14.4 nM.
For `CSc1cccc(-c2ccc3c(c2)SCCC3NC(=O)O[C@@H]2CN3CCC2CC3)c1` (stereo partly drawn) [Example 325, (S)-quinuclidin-3-yl (7-(3-(methylthio)phenyl)thiochroman-4-yl)carbamate], in that order: 0.58 nM and 6.13 nM.
Consider `CN(C)c1cccc(-c2ccc3c(c2)SCCC3NC(=O)O[C@@H]2CN3CCC2CC3)c1` (stereo partly drawn) [Example 326, (S)-quinuclidin-3-yl (7-(3-(dimethylamino)phenyl)thiochroman-4-yl)carbamate], for which the IC50 is 0.64 nM in test [1] and 10.3 nM in test [2].
For `O=C(NC1CCSc2cc(-c3ccc4c(c3)OC(F)(F)O4)ccc21)O[C@@H]1CN2CCC1CC2` (stereo partly drawn) [Example 327, (S)-quinuclidin-3-yl (7-(2,2-difluorobenzo[d][1,3]dioxol-5-yl)thiochroman-4-yl)carbamate], in that order: 2.7 nM and 37.6 nM.
For `O=C(NC1CCSc2cc(-c3coc4ccccc34)ccc21)O[C@@H]1CN2CCC1CC2` (stereo partly drawn) [Example 328, (S)-quinuclidin-3-yl (7-(benzofuran-3-yl)thiochroman-4-yl)carbamate], in that order: 1.18 nM and 13.8 nM.
`CC1(C)CSc2ccc(-c3ccc(C(F)(F)F)cc3)cc2C1NC(=O)O[C@@H]1CN2CCC1CC2` (stereo partly drawn) [Example 329, (S)-quinuclidin-3-yl (3,3-dimethyl-6-(4-(trifluoromethyl)phenyl)thiochroman-4-yl)carbamate]: the half-maximal inhibitory concentration (IC50) amounted to 14.9 nM in test [1] and 33.8 nM in test [2].
The like results for `CC1(C)COc2cc(-c3cccc(F)c3)c(F)cc2C1NC(=O)O[C@@H]1CN2CCC1CC2` (stereo partly drawn) [Example 330, (S)-quinuclidin-3-yl (6-fluoro-7-(3-fluorophenyl)-3,3-dimethylchroman-4-yl)carbamate] were, in that order, 0.28 nM and 1.8 nM.

The values are drawn from patent US12673944B2, “Compounds having inhibitory activity against glucosylceramide synthase or pharmaceutically acceptable salt thereof, processes for preparing the same, and pharmaceutical compositions comprising the same” (YUHAN CORPORATION, priority 2019, dated 2026).
